The record followed here is PMC13252604, “First Generation Proteolysis Targeting Chimeras (PROTACs) for the Treatment of Progeria” (Advanced Science, 2026).

This experiment concerns the target T1, progerin (Mus musculus, UniProt P48678, DEL608-657).
T1 construct: endogenous in cells; host or cells: immortalized (SV40-LT) fibroblasts from Lmna G609G/G609G mice
T1 sequence (P48678 with tags, fused parts or gaps DEL608-657 limits assumed): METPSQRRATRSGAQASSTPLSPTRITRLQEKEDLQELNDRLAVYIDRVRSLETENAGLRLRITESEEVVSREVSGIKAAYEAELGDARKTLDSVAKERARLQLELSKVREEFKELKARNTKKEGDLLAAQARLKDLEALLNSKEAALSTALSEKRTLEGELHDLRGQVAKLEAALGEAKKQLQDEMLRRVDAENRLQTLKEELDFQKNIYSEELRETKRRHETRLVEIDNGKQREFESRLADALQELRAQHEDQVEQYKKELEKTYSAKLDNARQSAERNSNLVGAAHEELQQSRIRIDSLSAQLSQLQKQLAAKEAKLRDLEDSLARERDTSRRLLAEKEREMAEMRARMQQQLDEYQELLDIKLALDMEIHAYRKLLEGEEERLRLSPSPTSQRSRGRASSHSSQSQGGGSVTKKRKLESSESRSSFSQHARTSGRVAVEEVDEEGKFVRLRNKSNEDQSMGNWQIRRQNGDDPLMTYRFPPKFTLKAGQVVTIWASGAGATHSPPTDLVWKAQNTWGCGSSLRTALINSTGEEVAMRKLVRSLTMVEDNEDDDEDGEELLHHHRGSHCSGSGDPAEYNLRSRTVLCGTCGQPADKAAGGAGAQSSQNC
The experiment is described as follows: Progerin degradation, immunoblot in Lmna^G609G/G609G fibroblasts. The conditions noted are these: 8 h; for progerin levels (immunoblot quantification): Lmna^G609G/G609G fibroblasts, 5 µM, vs vehicle. The class given is cell-based. How it is done: The ability of compounds 2‐6 to degrade progerin was evaluated in Lmna^G609G/G609G fibroblasts, derived from the progeria mouse model that most closely replicates the human disease phenotype. Lamin A/C antibody was used for immunodetection due to its prevalent use in this context, enabling simultaneous visualization of both lamins and progerin [15].
FIGURE 2 (A) Representative cropped immunoblots and quantification of progerin from Lmna^G609G/G609G fibroblasts. Cells were incubated with vehicle or indicated compound at 5 µM for 8 h. MW, molecular weight (in kDa) markers. (B, C) Concentration and time‐dependency of the reduction of progerin levels induced by compounds 2 and 9. Graphs show quantification of progerin in Lmna^G609G/G609G fibroblasts (immunoblots are shown in Supporting Figure S1). Cells were incubated with vehicle or the indicated compound concentration for 8 h. For time‐course experiments, cells were incubated with vehicle or indicated compound at 5 µM. Bar graphs show mean±sem of 3 independent experiments performed in duplicate. Data were analysed using one‐way ANOVA followed by Dunnett's post–hoc test comparing all groups to the vehicle; ^*, p < 0.05. […]
4. Cell lines and culture.
Progeroid mouse fibroblasts, kindly donated by Prof. Carlos López Otín (Oviedo University, Spain), were isolated from LmnaG609G/G609G mice[19] and wild-type (WT) littermates and immortalized by retroviral transduction with SV40 large T antigen (SV40-LT). Since LmnaG609G/G609G mouse represents the most suitable and widely accepted model of HGPS, as it most faithfully recapitulates the molecular and phenotypic features of the human disease, its use in this study is fully justified. Moreover, although this cell […]
cells have been extensively validated by additional independent studies.[15, 65, 66] […]
experiments, nor does it affect the conclusions presented in our study.
Mouse fibroblasts were grown in Dulbecco’s modified eagle medium (DMEM, Gibco) supplemented with 10% heat inactivated fetal bovine serum (FBS, Gibco), 50 U/mL penicillin, and 50 μg/mL streptomycin (Invitrogen). Human progeroid HGADFN167 LmnaG608G/G608G (G608G) or or healthy HGADFN168 Lmna+/+ (WT) fibroblasts, were obtained from The Progeria Research Foundation (RRIDs CVCL_1Y92 and CVCL_1Y93, respectively) and cultured in DMEM with 20% heat inactivated FBS, 50 U/mL penicillin and 50 μg/mL streptomycin. All cells were incubated in a humidified atmosphere at 37 °C in the presence of 5% CO2 and were confirmed to be free of mycoplasma contamination. […]
Measurements were performed in triplicate, and each experiment was repeated at least three times. The viability values were calculated from the percentage of viable cells with respect to 100% viability of the vehicle-treated cells.
6. Immunoblot and immunocytofluorescence analysis.
Mouse or human progeroid cells were seeded at density of […] or 5 x 10^4 cells respectively on 12-well plates and incubated for 24 h in DMEM medium. For proteosome-dependency assays, cells were pre-treated either with the proteasome inhibitor (S)-MG132 (20 µM) or with the NEDD8-activating enzyme inhibitor MLN4924 (5 µM) for 2 h prior to […]
compound exposure. Then, cells were incubated with compound of interest or DMSO for the appropriate time and lysed with cold laemmli buffer (50 mM Tris-HCl pH 7.4, 150 mM NaCl, 1% Igepal) with a mixture of protease and phosphatase inhibitors (1 mM PMSF, 10 mM NaF, 0.3 mg/mL CalyculinA, 1 mM sodium orthovanadate, 10 mM β-glycerol-phosphate; all from Sigma-Aldrich and complete protease inhibitor cocktail, from Roche). Proteins were denatured at 95 ᵒC for 5 min and the lysates were immediately used or stored at -20 ᵒC until use. Samples were analysed by electrophoresis in polyacrylamide gels (All Kd SDS-PAGE, BioRad) and the proteins transferred to nitrocellulose membranes (GE Healthcare, Amersham). After 1 h of incubation in blocking buffer [20 mM Tris pH 7.6, 150 mM NaCl and 0.1% Tween-20 (TBS-T) with […]
For orientation: Immunoblotting shows a protein as a band on a membrane.

Turning to `CC1(C)Oc2cc3oc(=O)ccc3cc2C[C@@H]1OC(=O)CCCCCNc1cccc2c1C(=O)N(C1CCC(=O)NC1=O)C2=O` (stereo partly shown) [compound 2], the “progerin levels (immunoblot quantification)” value is “most effective in reducing progerin levels”. Further, the “progerin-reducing activity in the presence of proteasome inhibitor MG132” value (compound 5 µM, pre-treated with (S)-MG132 20 µM 2 h) is on record as “abolished”. The “progerin-reducing activity in the presence of neddylation inhibitor MLN4924” value (compound 5 µM, pre-treated with MLN4924 5 µM 2 h) is given as “abolished”.

As to `CC1(C)Oc2cc3oc(=O)ccc3cc2C[C@@H]1OC(=O)CCCCC(=O)Oc1ccc2c(c1)CCCN2C(=O)CCl` [compound 12], the “progerin levels (immunoblot quantification)” value was “failed to reduce progerin levels”.
